Literature values, collected in PMC9655391 (International Journal of Molecular Sciences, 2022).

Details: oral administration; ref [16],[20],[21],[22]

bioavailability: 32%
Compound: CCCCc1nc(Cl)c(CO)n1Cc1ccc(-c2ccccc2-c2nn[nH]n2)cc1 [LP, losartan potassium]
